Among the data in patent US6329395A, “Neuropeptide Y5 receptor antagonists” (Schering Corporation, priority 1999, dated 2001) are Ki values, retold here.

This assay concerns the target T1, neuropeptide Y5 receptor (Homo sapiens, UniProt Q15761).
T1 construct: expressed in transfected cells; host or cells: CHO cells (membranes)
T1 sequence (Q15761 1-445): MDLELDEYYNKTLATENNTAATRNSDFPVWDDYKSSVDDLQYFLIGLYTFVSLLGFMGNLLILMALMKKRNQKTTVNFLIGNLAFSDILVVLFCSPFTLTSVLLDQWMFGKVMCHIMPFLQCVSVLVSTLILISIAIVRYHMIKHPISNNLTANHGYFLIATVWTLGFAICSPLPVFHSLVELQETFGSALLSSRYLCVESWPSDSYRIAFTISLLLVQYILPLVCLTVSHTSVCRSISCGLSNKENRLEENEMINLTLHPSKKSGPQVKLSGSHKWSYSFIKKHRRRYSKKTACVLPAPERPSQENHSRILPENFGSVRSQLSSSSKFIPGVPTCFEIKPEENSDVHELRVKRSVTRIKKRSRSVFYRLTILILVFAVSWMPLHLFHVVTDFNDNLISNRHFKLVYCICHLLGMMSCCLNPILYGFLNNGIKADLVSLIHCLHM
The experiment in a line: NPY Receptor Binding Assay (125I-peptide YY, CHO cell membranes, neuropeptide Y5 receptor). As to the method: Human NPY receptors were expressed in CHO cells. Binding assays were performed in 50 mM HEPES, pH. […] Non-specific binding was determined in the presence of 1 uM NPY. The reaction mixtures were incubated for 90 minutes at 30° C. (NPY1 receptor) or at room temperature (NPY2, NPY4 and NPY5 receptors), then filtered through Millipore MAFC glass fiber filter plates which had been pre-soaked in 0.5% polyethyleneimine. The filters were washed with phosphate-buffered saline, and radioactivity was measured in a Packard TopCount scintillation counter.

[1] abbreviates: neuropeptide Y5 receptor binding, 0.1 nM 125I-peptide YY, room temperature, 90 minutes, pH 7.2, r/h Y5, read-out: r/h Y5 Ki.

Read-outs that look alike come from different tables or passages of the source.

Turning to `CCCC(C)(C)Sc1ccc(NC(=O)N(C)C2CCN(S(C)(=O)=O)CC2)cc1` [Example 13A], the Ki under setting [1] was found to be 0.8 nM. The same measure, in the same setting: in the case of `CCCC(C)(C)Oc1ccc(NC(=O)C(C)(C)C)cc1` [Example 6] it was 13 nM; in that of `CCC(C)(C)CCc1ccc(NC(=O)N(C)CCc2ccncc2)cc1` [Example 19], 0.4 nM; in that of `CCCCC1(Oc2ccc(NC(=O)N(C)c3ccccc3)cc2)CCCC1` [Example 6N], 66 nM.

Take `CCCC(C)(C)Sc1ccc(NC(=O)C(C)(C)C)cc1` [Example 1]: the Ki under setting [1] was found to be 3 nM. On the same count and under the same terms, in the case of `CCCC(C)(C)Sc1ccc(NC(=O)C(C)(C)C)cc1F` [Example 3] it was 9 nM. Compound `CN(C)C(=O)Nc1ccc(SC(C)(C)C)cc1` [Example 1M] displayed a Ki of 152 nM. As for `CCCC(C)(C)Sc1ccc(NC(=O)NC2CCN(C)CC2)cc1` [Example 2Al], the Ki under setting [1] is 697 nM. The same measure, in the same setting: the figure for `CCCC(C)(C)Sc1ccc(NC(=O)C(C)(C)N2CCN(c3ccccc3)CC2)cc1` [Example 8D] is 18 nM; for `CCCC(C)(C)Oc1ccc(NC(=O)CC(C)(C)C)cc1` [Example 6C] it is 668 nM; for `CCCC(C)(C)Sc1ccc(NC(=O)N(C)CCCN(C)C)cc1` [Example 2X] it is 50 nM.
